Values quoted from earlier work as cited in US11751566B2, “Growth regulator concentrate and use thereof” (FINE AGROCHEMICALS LIMITED, priority 2013, dated 2023).

| Compound | solubility in organic polar solvent (solution as generally provided) (organic polar solvent, like an alcohol) | solubility in solvents (including water) |
| --- | --- | --- |
| C=C1C[C@]23C[C@@]1(O)CC[C@H]2[C@@]12C=C[C@H](O)[C@@](C)(C(=O)O1)[C@H]2[C@@H]3C(=O)O [GA3, Gibberellic acid] | 3-4 wt % |  |
| CCC(=O)C1C(=O)CC(C(=O)O)CC1=O (centres unmarked) [Prohexadione] |  | low solubility |
